Results: ChEMBL document CHEMBL1201862, “PubChem BioAssay data set” (2004)
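Growth conditions: 96-well plates. Treatment: test compound, 48 hours, 5 concentrations. Analysis: linear interpolation between bracketing concentrations; unreached endpoints set to highest concentration. GI50: concentration for 50% inhibition of growth.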 Activity calls are given as the source filed them. No stated cut-off is given here; in the data, active = GI50 up to about 1.1 µM and inactive = higher.

Key:
Assay in all cases: growth of human tumour cells (NCI), 48 h
A549 = system: A549
EKVX = system: EKVX
HCC 2998 = system: HCC 2998
HCT-116 = system: HCT-116
HOP-92 = system: HOP-92
Malme-3M = system: Malme-3M
NCI-H522 = system: NCI-H522
OVCAR-4 = system: OVCAR-4
OVCAR-5 = system: OVCAR-5
RPMI-8226 = system: RPMI-8226
RXF 393 = system: RXF 393
SF-295 = system: SF-295
SK-MEL-28 = system: SK-MEL-28
UACC-257 = system: UACC-257
UO-31 = system: UO-31
MOLT-4 = system: MOLT-4
NCI-H226 = system: NCI-H226

Row | Structure (SMILES) | GI50 (A549) | GI50 (EKVX) | GI50 (HCC 2998) | GI50 (HCT-116) | GI50 (HOP-92) | GI50 (Malme-3M) | GI50 (NCI-H522) | GI50 (OVCAR-4) | GI50 (OVCAR-5) | GI50 (RPMI-8226) | GI50 (RXF 393) | GI50 (SF-295) | GI50 (SK-MEL-28) | GI50 (UACC-257) | GI50 (UO-31) | GI50 (MOLT-4) | GI50 (NCI-H226)
1 | CC1=NN(C(=O)c2ccc(Cl)cc2)C(=O)/C1=C/c1cccc([N+](=O)[O-])c1 | > 100 µM (inactive) | > 100 µM (inactive) | > 100 µM (inactive) | > 100 µM (inactive) | > 100 µM (inactive) | > 100 µM (inactive) | > 100 µM (inactive) | > 100 µM (inactive) | > 100 µM (inactive) | > 100 µM (inactive) | > 100 µM (inactive) | > 100 µM (inactive) | > 100 µM (inactive) | > 100 µM (inactive) | > 100 µM (inactive) | – | –
2 | COc1nc(N)c(NC(C)=O)c(=O)n1C | > 100 µM (inactive) | > 100 µM (inactive) | > 100 µM (inactive) | > 100 µM (inactive) | 39.9 µM (inactive) | > 100 µM (inactive) | – | > 100 µM (inactive) | > 100 µM (inactive) | > 100 µM (inactive) | > 100 µM (inactive) | > 100 µM (inactive) | > 100 µM (inactive) | > 100 µM (inactive) | > 100 µM (inactive) | > 100 µM (inactive) | 0.14 µM (active)
3 | COc1ccc(S(=O)(=O)c2ccccc2[N+](=O)[O-])cc1 | > 100 µM (inactive) | > 100 µM (inactive) | > 100 µM (inactive) | > 100 µM (inactive) | > 100 µM (inactive) | 81.1 µM (inactive) | – | > 100 µM (inactive) | > 100 µM (inactive) | > 100 µM (inactive) | 55.6 µM (inactive) | 62.8 µM (inactive) | 53.5 µM (inactive) | 71.8 µM (inactive) | 78 µM (inactive) | 92.3 µM (inactive) | > 100 µM (inactive)
4 | O=C(NN1C(=O)CSC1c1ccc(Cl)c(Cl)c1)c1ccncc1 (stereo unspecified) | 58.1 µM (inactive) | > 100 µM (inactive) | 46.2 µM (inactive) | – | – | 87.7 µM (inactive) | 72.8 µM (inactive) | 54.1 µM (inactive) | > 100 µM (inactive) | 42.9 µM (inactive) | 58.3 µM (inactive) | 54.3 µM (inactive) | > 100 µM (inactive) | 54.2 µM (inactive) | 85.1 µM (inactive) | 67.8 µM (inactive) | –
5 | CC(=O)Nc1ccc(-c2nnc(SCC(=O)Nc3ccccc3)o2)cc1 | > 100 µM (inactive) | – | – | 31.2 µM (inactive) | > 100 µM (inactive) | > 100 µM (inactive) | 60.3 µM (inactive) | > 100 µM (inactive) | > 100 µM (inactive) | 81.7 µM (inactive) | 89.9 µM (inactive) | 77.6 µM (inactive) | > 100 µM (inactive) | 93.8 µM (inactive) | 79.6 µM (inactive) | > 100 µM (inactive) | 82.4 µM (inactive)
6 | CC1CCCP(=O)(c2ccccc2)CC1 (stereo unspecified) | > 100 µM (inactive) | > 100 µM (inactive) | > 100 µM (inactive) | – | – | > 100 µM (inactive) | – | > 100 µM (inactive) | > 100 µM (inactive) | > 100 µM (inactive) | > 100 µM (inactive) | > 100 µM (inactive) | > 100 µM (inactive) | > 100 µM (inactive) | > 100 µM (inactive) | > 100 µM (inactive) | –
7 | COc1ccc(-c2cc(N3CCN(c4ccc(Cl)cc4)CC3)c(C#N)c(=O)o2)cc1 | 10.1 µM (inactive) | 11.4 µM (inactive) | 91.8 µM (inactive) | 12.6 µM (inactive) | > 100 µM (inactive) | 7.74 µM (inactive) | – | 2.45 µM (inactive) | > 100 µM (inactive) | 12.8 µM (inactive) | 5.12 µM (inactive) | 4.28 µM (inactive) | 6.9 µM (inactive) | 17.9 µM (inactive) | 4.79 µM (inactive) | – | 2.52 µM (inactive)
8 | C=CCNC(=O)C(C)C1CCC2(C)C=CC(=O)C(C)=C2C1O (stereo unspecified) | > 100 µM (inactive) | > 100 µM (inactive) | > 100 µM (inactive) | > 100 µM (inactive) | > 100 µM (inactive) | – | > 100 µM (inactive) | > 100 µM (inactive) | > 100 µM (inactive) | > 100 µM (inactive) | > 100 µM (inactive) | > 100 µM (inactive) | > 100 µM (inactive) | > 100 µM (inactive) | > 100 µM (inactive) | > 100 µM (inactive) | > 100 µM (inactive)
9 | O=P(c1ccccc1)(c1ccccc1)C1CC=C(c2ccccc2)C2(CCCC2)C1 (stereo unspecified) | 40.3 µM (inactive) | > 100 µM (inactive) | – | 45 µM (inactive) | 12.5 µM (inactive) | 34.8 µM (inactive) | 8.79 µM (inactive) | 29.6 µM (inactive) | 29.7 µM (inactive) | 20.5 µM (inactive) | 9.23 µM (inactive) | 72.3 µM (inactive) | 40.1 µM (inactive) | 43.7 µM (inactive) | 25.3 µM (inactive) | 21.4 µM (inactive) | 44.9 µM (inactive)
